Reference: US20030022820A1, “IN VIVO ACTIVATION OF TUMOR-SPECIFIC CYTOTOXIC T CELLS” (priority 1995, published 2003)
Values joined by “and” are separate entries in the source; they are usually repeats but may differ in a detail not shown here. Equal entries are not always repeated. Where two headings read alike, the source gives them in different places.

What was measured:
A2.1/K^b-Tg mice = test: Peptide priming of A2.1/K^b-Tg mice, lytic activity of peptide-specific CTL; type: in vivo
HLA-A2.1 = HLA-A2.1 (Homo sapiens, UniProt P04439, D140Y/D185E/D98H/E176V/E277Q/G131W/G231S/I119V/I121R/I166T/I218V/L300P/L318F/N151K/N90K/P208A/P217A/Q86G/Q94H/R138H/R169H/T345S); test: Competition assay for peptide binding to HLA-A2.1 (inhibition of A clone 12 lysis of M1-pulsed EA2 targets)
MALME-3M = test: Cytotoxicity assay, lysis of human tumors by H3 and H7 specific CTL; type: cell-based; design: scale not given here
Description: (§1) […] target cells were incubated at 37° C. with […] of sodium ^51Cr chromate for 90 minutes in the presence or absence of specific peptide. Cells were washed three times and resuspended in 5% RPMI. For the assay, […] ^51Cr-labeled target cells were incubated with different concentrations of effector cells in a final volume of […] in U-bottomed 96-well plates. Supernatants were removed after 4-7 hrs at 37° C., and the percent specific lysis was determined by the following formula: [formula]
(§2) Tumor cells were preincubated for 24 hours prior to the assay in media supplemented with γ-interferon (γ-IFN, 20 ng/ml) plus tumor necrosis factor-α (TNF-α, 3 ng/ml). It is known that such pretreatment of tumor cells increases the expression of MHC I and adhesion molecules such as ICAM I on the surface of the cell thus enhancing their sensitivity to lysis by CTL. (See, e.g., Fisk, et al., Lympho. & Cytokine Res. 13: 125-131 (1994); Fady, et al., Cancer Immunol. Immunother. 37: 329-336 (1993).)

JY = test: as above; type: cell-based; design: scale not given here
Description: as §1, §2

MDA.MB435 = test: as above; type: cell-based; design: scale not given here
Description: as §1, §2

CASKI = test: as above; type: cell-based
Description: as §1, §2

T98G = test: as above; type: cell-based
Description: as §1, §2

SKMEL-5 = test: as above; type: cell-based
Description: as §1, §2

U2-OS = test: as above; type: cell-based
Description: as §1, §2

SAOS.175 = test: as above; type: cell-based
Description: as §1, §2

ST486 = test: as above; type: cell-based
Description: as §1, §2

LG-2 = test: as above; type: cell-based
Description: as §1, §2

SV80 = test: as above; type: cell-based
Description: as §1, §2

OVCAR-5 = test: as above; type: cell-based
Description: as §1, §2

[1] = test system: A2.1/K^b×CD8 or A2.1 transgenic (Tg) mice; test: Immunization of transgenic mice with Her-2/neu peptides, cytotoxicity against peptide-pulsed T2-A2.1/K^b; type: in vivo; conditions: A2.1/K^b×CD8 or A2.1 Tg mice
Description: A2.1/K^b×CD8 and/or A2.1 transgenic mice were immunized with each of the peptides listed in Table 6 to determine if they could stimulate A2.1-restricted CTL. Mice were immunized with a mixture of 100 mg of the Her-2/neu peptide with 120 mg “helper” peptide in 100 ml Incomplete Freund's Adjuvant (IFA).
A2.1/K^b×CD8 or A2.1 lipopolysaccharide (LPS) -blasts were prepared as stimulators for in vitro restimulation of spleen cells from immunized mice. These were prepared by incubating splenocytes from A2/K^b or A2.1 mice in complete RPMI containing 25 mg/ml LPS and 7 mg/ml dextran sulfate at 1.5×10^6 cells/ml in a total volume of 30 ml for 3 days. […] Six days following in vitro restimulation, the CTL populations were assayed for lytic activity against T2-A2/K^b target cells preincubated with the peptide used for stimulation (15 mM). The resultant Her-2/neu peptide-specific CTL populations were maintained in vitro by weekly restimulation. […]
Spleen cells from injected animals were restimulated in vitro with irradiated syngeneic cells pulsed with the peptide used for in vivo priming. Immunogenicity was evaluated by assaying these cultured cells for cytotoxicity against T2-A2.1/K^b target cells pulsed with the priming peptide. […]

NCI.H1355 = test: Cytotoxicity assay, lysis of human tumors by H3 and H7 specific CTL; type: cell-based; conditions: Lung, A2 +
Description: as §1, §2

SW480 = test: as above; type: cell-based; conditions: Colon, A2 +
Description: as §1, §2

MCF-7 = test: as above; type: cell-based; conditions: Breast, A2 +
Description: as §1, §2

Hep-G2 = test: as above; type: cell-based; conditions: Hepatoma, A2 +
Description: as §1, §2

MDA.M8231 = test: as above; type: cell-based; conditions: Breast, A2 +
Description: as §1, §2

BT549 = test: as above; type: cell-based; conditions: Breast, A2 +
Description: as §1, §2

U87G = test: as above; type: cell-based; conditions: Glioblastoma, A2 +
Description: as §1, §2

[2] = E:T 60:1, T2A2/K^b targets pulsed with two mg of peptide, highest of at least three individual mice
[3] = peptide-priming of A2.1/K^b-Tg mice
[4] = Melanoma, A2 +, Her-2 +, + CYT (γ-IFN 20 ng/ml plus TNF-α 3 ng/ml, 24 hours)
[5] = Melanoma, A2 +, Her-2 +, without cytokines
[6] = Lymphoma, A2 +, Her-2 −, + CYT (γ-IFN 20 ng/ml plus TNF-α 3 ng/ml, 24 hours)
[7] = Lymphoma, A2 +, Her-2 −, without cytokines
[8] = + CYT (γ-IFN 20 ng/ml plus TNF-α 3 ng/ml, 24 hours)
[9] = Osteosarcoma, A2 +, Her-2 +, + CYT (γ-IFN 20 ng/ml plus TNF-α 3 ng/ml, 24 hours)
[10] = Osteosarcoma, A2 +, Her-2 +, without cytokines

For AAPPVAPAPAA [hu-wt-p53: 69-79], the “Lytic Activity by Peptide-Specific CTL After Priming of A2.1/K^b-Tg Mice [Specific 51Cr release (%)]” value (from here on “Lytic Activity … [Specific 51Cr release (%)]”) (A2.1/K^b-Tg mice; [2]) was 0%.
For “ILKEPVHGV [HIV-1 RT: 476-484, reference compound]”, the “(%) [inhibition of A2.1-binding of M1 (58-66)]” value (HLA-A2.1) was 72%, the “A2.1/K^b-restricted peptide-specific CTL response, in words” value (A2.1/K^b-Tg mice; mouse, in vivo) was “could mount an A2.1/K^b-restricted CTL response” and the “Lytic Activity … [Specific 51Cr release (%)]” value (A2.1/K^b-Tg mice; mouse, in vivo) was 85%.
NTFRHSVVV [hu-wt-p53: 210-218] was tested, and the “Lytic Activity … [Specific 51Cr release (%)]” value (A2.1/K^b-Tg mice; [2]) was 6%.
With LLPENNVLSPL [hu-wt-p53: 25-35] the “A2.1-binding activity / affinity, in words” value (HLA-A2.1) was “high affinity”, the “Lytic Activity … [Specific 51Cr release (%)]” value (A2.1/K^b-Tg mice; [2]) was 47% and the “A2.1/K^b-restricted peptide-specific CTL response, in words” value (A2.1/K^b-Tg mice; [3]) was “detectable”.
In the case of KLVGKLNWA [HIV-9K, reference compound], the “Killing of Tumors Expressing Her-2/neu” value (MALME-3M) is reported as 2 and 1, the “Killing of Tumors Expressing Her-2/neu” value (JY) is reported as 2 and 1 and the “Killing of Tumors Expressing Her-2/neu” value (MDA.MB435) is reported as 4 and 3. The “Killing of Tumors Expressing Her-2/neu” value (CASKI) was 8 and 11, the “Killing of Tumors Expressing Her-2/neu” value (T98G) was 9 and 13 and the “Killing of Tumors Expressing Her-2/neu” value (SKMEL-5) was 5 and 4. For the same sequence, the “Killing of Tumors Expressing Her-2/neu” value (U2-OS) was 18 and 24, the “Killing of Tumors Expressing Her-2/neu” value (SAOS.175) was 18 and 11 and the “Killing of Tumors Expressing Her-2/neu” value (ST486) was 1. For the same sequence, the “Killing of Tumors Expressing Her-2/neu” value (LG-2) was 1, the “Killing of Tumors Expressing Her-2/neu” value (SV80) was 2 and the “Killing of Tumors Expressing Her-2/neu” value (OVCAR-5) was 10 and 12.
“ASNENMETM [Flu NP 1934: 366-374, reference compound]” was tested, and the “(%) [inhibition of A2.1-binding of M1 (58-66)]” value (HLA-A2.1) was 4%.
With VMAGVGSPYV [Peptide H7] the “Killing of Tumors Expressing Her-2/neu” value (MALME-3M; [4]) was 14, the “Killing of Tumors Expressing Her-2/neu” value (MALME-3M; [5]) was 4 and the “Killing of Tumors Expressing Her-2/neu” value (JY; [6]) was 2. The “Killing of Tumors Expressing Her-2/neu” value (JY; [7]) was 4, the “Killing of Tumors Expressing Her-2/neu” value (MDA.MB435; Breast, A2 −, Her-2 +, + CYT (γ-IFN 20 ng/ml plus TNF-α 3 ng/ml, 24 hours)) was 1 and the “Killing of Tumors Expressing Her-2/neu” value (MDA.MB435; Breast, A2 −, Her-2 +, without cytokines) was 1. The “ability to stimulate a CTL response in Tg mice, in words” value [1] was “able to stimulate a CTL response”, the “Killing of Tumors Expressing Her-2/neu” value (NCI.H1355; [8]) was 62 and the “Killing of Tumors Expressing Her-2/neu” value (NCI.H1355; without cytokines) was 13. The “Killing of Tumors Expressing Her-2/neu” value (SW480; [8]) was 17, the “Killing of Tumors Expressing Her-2/neu” value (SW480; without cytokines) was 2 and the “Killing of Tumors Expressing Her-2/neu” value (MCF-7; [8]) was 40. The “Killing of Tumors Expressing Her-2/neu” value (MCF-7; without cytokines) was 7, the “Killing of Tumors Expressing Her-2/neu” value (Hep-G2; [8]) was 29 and the “Killing of Tumors Expressing Her-2/neu” value (Hep-G2; without cytokines) was 4. For the same sequence, the “Killing of Tumors Expressing Her-2/neu” value (CASKI; Cervix, A2 +, Her-2 +, + CYT (γ-IFN 20 ng/ml plus TNF-α 3 ng/ml, 24 hours)) was 20, the “Killing of Tumors Expressing Her-2/neu” value (CASKI; Cervix, A2 +, Her-2 +, without cytokines) was 9 and the “Killing of Tumors Expressing Her-2/neu” value (T98G; Glioblastoma, A2 +, Her-2 +, + CYT (γ-IFN 20 ng/ml plus TNF-α 3 ng/ml, 24 hours)) was 93. For the same sequence, the “Killing of Tumors Expressing Her-2/neu” value (T98G; Glioblastoma, A2 +, Her-2 +, without cytokines) was 29, the “Killing of Tumors Expressing Her-2/neu” value (SKMEL-5; [4]) was 40 and the “Killing of Tumors Expressing Her-2/neu” value (SKMEL-5; [5]) was 16. For the same sequence, the “Killing of Tumors Expressing Her-2/neu” value (MDA.M8231; [8]) was 89, the “Killing of Tumors Expressing Her-2/neu” value (MDA.M8231; without cytokines) was 26 and the “Killing of Tumors Expressing Her-2/neu” value (U2-OS; [9]) was 62. For the same sequence, the “Killing of Tumors Expressing Her-2/neu” value (U2-OS; [10]) was 30, the “Killing of Tumors Expressing Her-2/neu” value (SAOS.175; [9]) was 35 and the “Killing of Tumors Expressing Her-2/neu” value (SAOS.175; [10]) was 27. The “Killing of Tumors Expressing Her-2/neu” value (BT549; [8]) was 36, the “Killing of Tumors Expressing Her-2/neu” value (BT549; without cytokines) was 2 and the “Killing of Tumors Expressing Her-2/neu” value (ST486; [6]) was 8. For the same sequence, the “Killing of Tumors Expressing Her-2/neu” value (ST486; [7]) was 5, the “Killing of Tumors Expressing Her-2/neu” value (LG-2; EBV-trans., A2 +, Her-2 −, + CYT (γ-IFN 20 ng/ml plus TNF-α 3 ng/ml, 24 hours)) was 3 and the “Killing of Tumors Expressing Her-2/neu” value (LG-2; EBV-trans., A2 +, Her-2 −, without cytokines) was 1. For the same sequence, the “Killing of Tumors Expressing Her-2/neu” value (SV80; Fibroblast, A2 +, Her-2 −, + CYT (γ-IFN 20 ng/ml plus TNF-α 3 ng/ml, 24 hours)) was 2, the “Killing of Tumors Expressing Her-2/neu” value (SV80; Fibroblast, A2 +, Her-2 −, without cytokines) was 2 and the “Killing of Tumors Expressing Her-2/neu” value (OVCAR-5; Ovarian, A2 +, Her-2 +, + CYT (γ-IFN 20 ng/ml plus TNF-α 3 ng/ml, 24 hours)) was 23. For the same sequence, the “Killing of Tumors Expressing Her-2/neu” value (OVCAR-5; Ovarian, A2 +, Her-2 +, without cytokines) was 13, the “Killing of Tumors Expressing Her-2/neu” value (U87G; [8]) was 1 and the “Killing of Tumors Expressing Her-2/neu” value (U87G; without cytokines) was 1.
With STPPPGTRV [hu-wt-p53: 149-157] the “A2.1-binding activity / affinity, in words” value (HLA-A2.1) was “intermediate affinity”, the “A2.1/K^b-restricted peptide-specific CTL response, in words” value (A2.1/K^b-Tg mice; mouse, in vivo) was “detectable” and the “Lytic Activity … [Specific 51Cr release (%)]” value (A2.1/K^b-Tg mice; mouse, in vivo) was 91%.
In the case of IISAVVGIL [Peptide H11], the “ability to stimulate a CTL response in Tg mice, in words” value [1] is reported as “could not elicit a response”.
For VLSPLPSQA [hu-wt-p53: 31-39], the “Lytic Activity … [Specific 51Cr release (%)]” value (A2.1/K^b-Tg mice; [2]) was 3%.
In the case of AAPTPAAPA [hu-wt-p53: 78-86], the “Lytic Activity … [Specific 51Cr release (%)]” value (A2.1/K^b-Tg mice; [2]) is reported as 0%.
For RMPEAAPPV [hu-wt-p53: 65-73], the “A2.1-binding activity / affinity, in words” value (HLA-A2.1) was “high affinity”, the “Lytic Activity … [Specific 51Cr release (%)]” value (A2.1/K^b-Tg mice; [2]) was 85% and the “A2.1/K^b-restricted peptide-specific CTL response, in words” value (A2.1/K^b-Tg mice; [3]) was “detectable”.
